Measured values from US20040034216A1, “3-Nitrogen-6,7-dioxygen steroids and uses related thereto” (priority 2003, published 2004).

Legend:
[1] = system: Rat Mast Cell Line (RBL-2H3); test: Antigen-induced release of hexosaminidase from a rat mast cell line (RBL-2H3); type: cell-based; conditions: Rattus norvegicus, RBL-2H3, inhibition of antigen (DNP-HSA)-induced hexosaminidase release, tested at 0.3, 3, 10 and 30 μM, read-out: Hex IC50
Experimental: The anti-allergic effects of a compound of the present invention was evaluated by measuring its effect on antigen-induced secretion of hexosaminidase from a passively sensitized rat mast cell line. The ability of a test compound to inhibit the release of mast cell granule contents, e.g., histamine and hexosaminidase, is indicative of the anti-allergy and/or anti-asthma activity of the compound. Hexosaminidase is released from the mast cell granule along with histamine and other mediators during antigen challenge. The test is performed as follows.
RBL-2H3 cells are grown in culture and passively sensitized for 1 hour at 37° C. to dinitrophenol (DNP) using anti-human-DNP (IgE). Cells are incubated with test compound for 30 minutes at 37° C. and stimulated with 0.5 μg/ml DNP-HSA (antigen) for 30 minutes. Aliquots of the supernatant are removed and used to measure the amount of hexosaminidase released during challenge with the antigen. The amount of hexosaminidase present in the supernatant is determined colorimetrically by monitoring the enzymatic metabolism of p-nitrophenyl-N-acetyl-β-D-glucosaminide (p-NAG) over a period of 60 minutes at 405 nm. The effect of each test compound is determined as a percentage of the antigen-induced response (minus background release) obtained in the presence of DMSO alone. These values are used to determine the degrees of inhibition of antigen-induced hexosaminidase release from the cells.

[2] = system: Jurkat clone E6.1 cells; test: Antigen-induced calcium flux in anti-CD3 stimulated Jurkat cells (Fura 2AM); type: cell-based; conditions: Homo sapiens, Jurkat, read-out: Calcium (% inhibition at 20 μM), 20 μM; anti-CD3 mAb stimulated Jurkat clone E6.1 cells
Source text: Elevation of cytoplasmic calcium concentration is a common and crucial event which follows the activation of many types of cell surface receptors. Increases in intracellular calcium that occur following agonist activation of inositol lipid hydrolysis are the results of calcium release from the endoplasmic reticulum and the influx of calcium through the plasma membrane. Increases in cytosolic calcium concentration are involved in many important cellular responses in the inflammatory process including adhesion, motility, gene expression, proliferation, and degranulation. Changes in intracellular calcium concentrations can affect both short and long term cellular responses. An assay method to evaluate a test compound's impact on calcium flux is provided as follows.
The resulting supernatants are discarded and each pellet is washed in 10 mL HBSS. Cell suspensions are accumulated and centrifuged for 5 minutes at 900 RPM to form a cell pellet. The resulting supernatant is discarded and the pellet is resuspended in HBSS at 1×10^7cells/mL. The cell suspension is transferred to a 20 mm petri dish and incubated at 37° C., 5% CO2 for 20 minutes.
One volume of Fura 2AM is mixed to one volume of detergent Pluronic F127. Cells are labeled with 4 μL of probe solution to each mL of cell suspension. The petri dish is wrapped in aluminum foil to protect from light and placed on a plate shaker for 30 minutes at room temperature.
The following steps are done in the laminar flow hood with the fluorescent lights turned off. The petri dish is removed from the shaker and the labeled cell suspension is transferred to a 15 mL conical tube and washed twice with HBSS as above. The cell pellet is resuspended in 12 mL HBSS and left wrapped in foil for 30 minutes at room temperature. The labeled cell suspension is aliquoted (100 μL/well) into a Dynex 96 well white opaque tissue culture plate. […] Selected compounds were tested for dose related activity. Test samples and activator (anti-CD3 mAb at final concentration of 4 μg/mL, PharMingen) are added manually (50 μL), such that the minimum time to acquire the first data point after stimulation is approximately 30 seconds. The calcium influx response to anti-CD3 mAb is measured as an “end point” assay. The entire plate is read in 100 seconds using a kinetic of 1 second per well.
The plate is read before the addition of anti-CD3 to monitor non-specific effect of samples/drugs. Fluorescence emission is measured at 510 nm with excitation alternating between 340 and 380 every second using an excitation/emission filter pair. Data from these dual wavelengths are represented as a ratio of 2 excitations wavelengths. This ratio is independent of intracellular dye and cell concentrations, enabling real comparison between experiments.

[3] = system: sensitized Brown Norway rats; test: Ovalbumin-induced accumulation of inflammatory cells in lung lavage fluid (allergen-induced lung inflammation); type: in vivo, rat; conditions: p.o.
Experimental: The ability of a compound to inhibit the allergen-induced accumulation of inflammatory cells such as eosinophils and neutrophils in the lavage fluid obtained from sensitized animals is indicative of that compound's anti-asthma activity. […] The test is conducted as follows.
Male Brown Norway rats are sensitized to ovalbumin by single intraperitoneal injection of 1 mg ovalbumin adsorbed to 100 mg […] (alum) in 1 ml sterile saline (saline control rats receive only sterile saline) on day 1, and allowed to sensitize until day 21. […] Rats are challenged with 0.5% ovalbumin in saline generated using a Devillbis nebulizer for 60 min on day 21.
Forty-eight hrs after challenge, animals are sacrificed with an overdose of intraperitoneally-delivered sodium pentobarbitol and the lungs are lavaged with cold 2×7 ml phosphate buffered saline. The recovered lavage fluid is placed on ice. The bronchoalveolar lavage fluid is centrifuged and the supernatant removed. The pellet is resuspended in phosphate buffered saline at 4° C. Cytospins are prepared and stained for differentiation and enumeration of cell types.
Test compound was administered in 300 μl corn oil (Tables 7 and 8) or water (Table 9), which were used as vehicles. Control animals received 300 μl corn oil or water alone, i.e., no drug. […] A negative value in Table 7, 8, or 9 indicates an exacerbation of the effect over the control animal.

[4] = Metabolic stability in human liver S9 fractions; type: in vitro ADME
Source text: The therapeutic effectiveness of a test compound can be often directly related to its metabolic stability in vivo. The majority of known, marketed drugs are metabolized by a group of enzymes known as P450 enzymes. The S9 fraction of human liver contains all the P450 enzymes and also cytoplasmic enzymes that may be involved in the metabolism of new chemical entities. Metabolism in vitro using human S9 fractions is a standard assay to evaluate relative metabolic stability of new compounds. The test is performed as follows.
Reagents are thawed on ice and combined to make up a Master Mix as follows: Potassium phosphate (100 mM, pH 7), G6P (0.25 mM), G6PDH (2 U/ml), NADPH (1 mM), UDP (0.25 mM), APPS (0.25 mM), and S9 fraction (2 mg/ml). A volume of 498 μl of the Master mix is dispensed into each microcentrifuge tube. A volume of 2 μl of 2.5 mM test compound (final concentration of 10 μM) is dispensed into the center of the lid of the appropriate tube, and the lids gently closed to prevent mixing. Synchronous combination of test compound and master mix is achieved by simultaneous ten times inversion of the tubes, which are then incubated at 37° C. and shaken at 150 rpm for the appropriate incubation times. While incubation is in progress, all 0 time samples are mixed individually by three times inversion followed by the immediate addition of 500 μl ice cold acetonitrile with three times inversion to stop the reaction. Immediately after each 15 minutes and 30 minutes incubation is complete, ice cold acetonitrile is added to each tube and the tubes mixed by three times inversion. All sample tubes are incubated at −80° C. for a minimum of 15 minutes, thawed and remixed by inversion. Aliquots of 650 μl are transferred to Chromatographic Specialties micro-system spin filter system tubes (0.2 μm nylon membrane, C618505) and centrifuged at 13,000 rpm for 48 seconds. The sample filtrates are stored at −80° C.
Sample filtrates are analyzed on LCMS, and percent remaining after 15 and 30 minute incubation is calculated relative to the 0 minute incubation.
The metabolic stability of various compounds are summarized in Table 10 as the percent remaining after 15 or 30 minutes incubation with human liver S9 fractions.

[5] = Pharmacokinetic profile in the rat; type: in vivo
[6] = Pharmacokinetic profile in the monkey; type: in vivo
[7] = physchem; conditions: water
[8] = 5 mg/kg/day for 4 days, corn oil, lung lavage fluid, relative to control animals
[9] = 0.1 mg/kg, 4 days qd, water vehicle
[10] = 0.3 mg/kg, 4 days qd, water vehicle
[11] = 1 mg/kg, 4 days qd, water vehicle

C/C=C1/CCC2C3C(CC[C@]12C)[C@@]1(C)CC[C@H](N)CC1[C@@H](O)[C@@H]3O (some centres unmarked) [Compound 28]
IC50 [1]: 6.8 µM | inhibition at 20 µM [2]: 29% | % inhibition of eosinophils [3, 8]: 85% | remains unchanged after 15 and even 30 minutes incubation with human S9 fractions ([4]; human, s9, 0.5 h, 10 μM, pH 7): 100% | maximal concentration in plasma [5]: predictable and linear | maximal concentration in plasma [6]: predictable and linear

C/C=C1/CCC2C3C(CC[C@]12C)[C@@]1(C)CC[C@H](N)CC1[C@@H](O)[C@@H]3O (some centres unmarked) [Compound 83]
IC50 [1]: 7.7 µM | inhibition at 20 µM [2]: 30.3% | % inhibition of eosinophils [3, 8]: 67% | solubility [7]: > 100 mg/mL

C=C1CCC2C3C(CC[C@]12C)[C@@]1(C)CC[C@H](N)CC1[C@@H](O)[C@@H]3O (some centres unmarked) [Compound 89]
% inhibition of eosinophils [3, 8]: 57% | remains unchanged after 15 and even 30 minutes incubation with human S9 fractions ([4]; human, s9, 0.5 h, 10 μM, pH 7): 100% | maximal concentration in plasma [5]: predictable and linear | maximal concentration in plasma [6]: predictable and linear

CC1(C)CCC2=C1CCC1C2[C@@H](O)[C@H](O)C2C[C@@H](N)CC[C@]12C (some centres unmarked) [Compound 139]
IC50 [1]: 10.3 µM | inhibition at 20 µM [2]: 26.3% | % inhibition of eosinophils [3, 9]: 46% | % inhibition of lymphocytes [3, 9]: 19% | % inhibition of neutrophils [3, 9]: 42% | % inhibition of eosinophils [3, 10]: 41% | % inhibition of lymphocytes [3, 10]: 34% | % inhibition of neutrophils [3, 10]: 62% | % inhibition of eosinophils [3, 11]: 42% | % inhibition of lymphocytes [3, 11]: 56% | % inhibition of neutrophils [3, 11]: 63% | % remaining after 15 min ([4]; human, s9, 15 min, 10 μM, pH 7): 109 ± 26% | remains unchanged after 15 and even 30 minutes incubation with human S9 fractions ([4]; human, s9, 0.5 h, 10 μM, pH 7): 100% | % remaining after 30 min ([4]; human, s9, 30 min, 10 μM, pH 7): 100 ± 10%

CCC1(C)CCC2=C1CCC1C2C(O)C(O)C2CC(N)CCC21C.Cl (centres unmarked) [Compound 143]
remains unchanged after 15 and even 30 minutes incubation with human S9 fractions ([4]; 15 and 30 minutes, human S9 fractions): 100%
